Earlier results, collected in patent publication US20140271903A1, “USE OF THERMO-SENSITIVE GEL FOR CONTROLLED DELIVERY OF ALK-5 INHIBITORS TO THE EYE AND RELATED METHODS” (NORTHEAST OHIO MEDICAL UNIVERSITY, priority 2013, published 2014).

Key:
[1] = tested on: rabbit subconjunctival fibroblasts; conditions: cultured rabbit subconjunctival fibroblasts
[2] = tested on: rabbit subconjunctival fibroblasts

| Compound | bleb survival (in vivo rabbit GFS model; recent rabbit studies, post-operative scarring after GFS) | downstream proteins of TGF-β: CTGF and a-SMA [1] | cytotoxicity and cell death versus antimetabolites (5-FU, MMC) [2] | bleb survival period compared to MMC (in vivo rabbit GFS model; in vivo rabbit GFS model) | period of filtering bleb survival (in vivo rabbit GFS model; in vivo rabbit GFS model) | toxicity in GFS compared to MMC (in vivo rabbit GFS model; rabbit, in vivo) |
| --- | --- | --- | --- | --- | --- | --- |
| CO[C@@]12[C@H](COC(N)=O)C3=C(C(=O)C(C)=C(N)C3=O)N1C[C@@H]1N[C@@H]12 [MMC, mitomycin-C] | around 30 days | – | – | – | – | – |
| Cc1cccc(-c2[nH]c(C(C)(C)C)nc2-c2ccc3c(c2)OCO3)n1 [SB-505124] | – | marked reduction | less cytotoxic and causing less cell death than antimetabolites | substantially shorter compared to MMC | extended the period of filtering bleb survival | substantially lower than that of MMC |
